Results published in US20230091047A1 (priority 2019, published 2023).
Like-named read-outs stand apart in the source and are kept apart here.

How the values were obtained:
in vitro = assay type: cell-based; conditions: human, HepG2 or HepG2.117 cells, ATPlite, mean value
Procedure, shortened: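 Luminescent ATP quantitation served as the viability endpoint following a 3- or 4-day incubation with test compounds.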

[1] = test system: HBV (HepG2.117 cell line, inducibly HBV producing); assay: Anti-HBV activity: intracellular HBV DNA by real-time PCR in HepG2.117 cells after 3 days of treatment; assay type: cell-based, hepatitis B virus
Procedure, shortened: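 Read-out is intracellular HBV DNA, measured by real-time PCR using HBV-specific primers and probe. Cells were stable, inducible HBV-producing HepG2.117 (Tet-off). Serially diluted compound was applied for 3 days after replication was induced.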

[2] = 3-days incubation (not marked with *)
[3] = Hepatitis B virus, HepG2.117, 72 h, HepG2.117 cells, intracellular HBV DNA by real-time PCR, 3 days of treatment, mean value; read-out: EC50 (μM, mean value)
[4] = 3-days incubation (unmarked values)
[5] = Hepatitis B virus, HepG2.117, 72 h, HepG2.117 cells, 3 days of treatment, intracellular HBV DNA by real-time PCR; mean value; read-out: EC50 (μM, mean value)
[6] = HepG2.117 cells, 3 days of treatment, intracellular HBV DNA by real-time PCR; mean value; read-out: EC50 (μM, mean value)

Row | Compound | CC50 at 3 days (in vitro; [2]) [µM] | EC50 [1, 3] [µM] | CC50 at 3 days (in vitro; [4]) [µM] | EC50 [1, 5] [µM] | further results
1 | C[C@@H]1Cc2c(nc(N[C@H](C)c3ccc(OC(F)(F)F)cc3)n(-c3ccc(-n4cccn4)cc3)c2=O)CN1C(=O)c1ccc(Cl)c(Cl)c1 (single isomer, unassigned) [Compound C463a] | > 50 | 0.24 | – | – | –
2 | CNC(=O)c1ccc(-n2c(NCc3csc(C4CC4)n3)nc3c(c2=O)C[C@@H](C)N(C(=O)c2ccc(Cl)c(Cl)c2)C3)cc1 [Compound C490] | 28.4 | 0.89 | – | – | –
3 | CNC(=O)c1ccc(-n2c(NC(C)C)nc3c(c2=O)C[C@@H](C)N(C(=O)c2ccc(OC(F)(F)F)c(Cl)c2)C3)cc1 [Compound C525] | > 50 | 0.15 | – | – | –
4 | CNC(=O)c1ccc(-n2c(NC(C)C)nc3c(c2=O)C[C@@H](C)N(C(=O)c2ccc(C(C)(F)F)cc2)C3)cc1 [Compound C573] | > 50 | 0.32 | – | – | –
5 | CC(C)Nc1nc2c(c(=O)n1-c1ccc(N3CC[C@H](O)C3)cc1)C[C@@H](C)N(C(=O)c1ccc(Cl)c(Cl)c1)C2 [Compound C200, (6R)-7-(3,4-dichlorobenzoyl)-3-{4-[(3S)-3-hydroxypyrrolidin-1-yl]phenyl}-6-methyl-2-[(propan-2-yl)amino]-5,6,7,8-tetrahydropyrido[3,4-d]pyrimidin-4(3H)-one] | – | – | 35.4 | 0.2 | –
6 | CC(C)Nc1nc2c(c(=O)n1-c1ccc(-n3cncn3)cc1)C[C@@H](C)N(C(=O)c1ccc(Cl)c(Cl)c1)C2 [Compound C611] | > 50 | 0.17 | – | – | –
7 | COc1ccccc1-n1c(N[C@H](C)C(F)(F)F)nc2c(c1=O)CCN(C(=O)c1ccc(Cl)c(Cl)c1)C2 (single isomer, unassigned) [Compound C101a] | – | – | 36.9 | – | EC50 [1, 6]: 22.1 µM
8 | COc1ccc(CNc2nc3c(c(=O)n2-c2ccc(F)c(C#N)c2)CCN(C(=O)c2ccc(Cl)c(Cl)c2)C3)cc1 [Compound C77, 5-[7-(3,4-dichlorobenzoyl)-2-{[(4-methoxyphenyl)methyl]amino}-4-oxo-5,6,7,8-tetrahydropyrido[3,4-d]pyrimidin-3(4H)-yl]-2-fluorobenzonitrile] | – | – | > 50 | 1.58 | –
9 | CC(C)Nc1nc2c(c(=O)n1-c1ccc(C(=O)NC3CC3)cc1)C[C@@H](C)N(C(=O)c1ccc(Cl)c(Cl)c1)C2 [Compound C167, N-cyclopropyl-4-[(6R)-7-(3,4-dichlorobenzoyl)-6-methyl-4-oxo-2-[(propan-2-yl)amino]-5,6,7,8-tetrahydropyrido[3,4-d]pyrimidin-3(4H)-yl]benzamide] | – | – | > 50 | 0.06 | –
10 | CNC(=O)c1ccc(-n2c(NCc3n[nH]c(=O)[nH]3)nc3c(c2=O)C[C@@H](C)N(C(=O)c2ccc(Cl)c(Cl)c2)C3)cc1 [Compound C600] | > 50 | > 25 | – | – | –
11 | CNC(=O)c1ccc(-n2c(NC(C)C)nc3c(c2=O)C[C@@H](C)N(C(=O)c2cc(Br)cc(C(F)(F)F)c2)C3)cc1 [Compound C602] | > 25 | 0.38 | – | – | –
12 | CC(C)Nc1nc2c(c(=O)n1-c1ccc(-n3ccnn3)cc1)C[C@@H](C)N(C(=O)c1ccc(Cl)c(Cl)c1)C2 [Compound C430] | > 50 | 0.06 | – | – | –
13 | COc1ccccc1-n1c(NCC2CCN(C(C)=O)CC2)nc2c(c1=O)CCN(C(=O)c1ccc(Cl)c(Cl)c1)C2 [Compound C25, 2-{[(1-acetylpiperidin-4-yl)methyl]amino}-7-(3,4-dichlorobenzoyl)-3-(2-methoxyphenyl)-5,6,7,8-tetrahydropyrido[3,4-d]pyrimidin-4(3H)-one] | – | – | > 50 | 44.7 | –
14 | COc1ccc(CNc2nc3c(c(=O)n2-c2ccc(N4CCOCC4)cc2)CCN(C(=O)c2ccc(Cl)c(Cl)c2)C3)cc1 [Compound C128, 7-(3,4-dichlorobenzoyl)-2-{[(4-methoxyphenyl)methyl]amino}-3-[4-(morpholin-4-yl)phenyl]-5,6,7,8-tetrahydropyrido[3,4-d]pyrimidin-4(3H)-one] | – | – | > 50 | 1.06 | –
15 | CNc1nc2c(c(=O)n1-c1ccccc1OC)CCN(C(=O)c1ccc(Cl)c(Cl)c1)C2 [Compound C11, 7-(3,4-dichlorobenzoyl)-3-(2-methoxyphenyl)-2-(methylamino)-5,6,7,8-tetrahydropyrido[3,4-d]pyrimidin-4(3H)-one] | – | – | – | 6.41 | CC50 at 4 days (in vitro; 4-days incubation (values marked with *)): > 50 µM
16 | CNC(=O)c1ccc(-n2c(N[C@H](C)c3cnnn3C)nc3c(c2=O)C[C@@H](C)N(C(=O)c2ccc(Cl)c(Cl)c2)C3)cc1 [Compound C517] | > 50 | > 25 | – | – | –
17 | CC(C)Nc1nc2c(c(=O)n1-c1ccc(-c3nccn3C)cc1)CCN(C(=O)c1ccc(Cl)c(Cl)c1)C2 [Compound C174, 7-(3,4-dichlorobenzoyl)-3-[4-(1-methyl-1H-imidazol-2-yl)phenyl]-2-[(propan-2-yl)amino]-5,6,7,8-tetrahydropyrido[3,4-d]pyrimidin-4(3H)-one] | – | – | 6.8 | 0.42 | –

Row | Compound | CC50 at 3 days (in vitro; [2]) [µM] | EC50 [1, 3] [µM] | CC50 at 3 days (in vitro; [4]) [µM] | EC50 [1, 5] [µM] | further results
18 | CNC(=O)c1ccc(-n2c(N[C@H](C)c3ccc(C(F)(F)F)c(Cl)c3)nc3c(c2=O)C[C@@H](C)N(C(=O)c2ccc(Cl)c(Cl)c2)C3)cc1 (single isomer, unassigned) [Compound C664a] | 6.7 | 0.13 | – | – | –
19 | CNC(=O)c1ccc(-n2c(N[C@@H](C)c3ccnn3C)nc3c(c2=O)C[C@@H](C)N(C(=O)c2ccc(Cl)c(Cl)c2)C3)cc1 (single isomer, unassigned) [Compound C372b] | – | – | > 50 | 2.54 | –
20 | CNC(=O)c1ccc(-n2c(NC(C)C)nc3c(c2=O)C[C@@H](C)N(C(=O)c2ccc(Cl)c(C(F)(F)F)c2)C3)cc1Cl [Compound C642] | > 50 | 0.04 | – | – | –
21 | CNC(=O)c1ccc(-n2c(NC3COC(C4CC4)C3)nc3c(c2=O)C[C@@H](C)N(C(=O)c2ccc(Cl)c(Cl)c2)C3)cc1 (stereo partly drawn) [Compound C549] | > 50 | 1.22 | – | – | –
22 | CNC(=O)c1ccc(-n2c(NCc3c[nH]nn3)nc3c(c2=O)C[C@@H](C)N(C(=O)c2ccc(Cl)c(Cl)c2)C3)cc1 [Compound C423] | > 50 | > 7.4 | – | – | –
23 | CNC(=O)c1ccc(-n2c(N[C@H](C)c3cccc(C(F)F)c3)nc3c(c2=O)C[C@@H](C)N(C(=O)c2ccc(Cl)c(Cl)c2)C3)cc1 (single isomer, unassigned) [Compound C660a] | > 50 | 1.3 | – | – | –
24 | CNC(=O)c1cnc(-n2c(N[C@@H](C)c3ccc(C(F)(F)F)cc3)nc3c(c2=O)C[C@@H](C)N(C(=O)c2ccc(Cl)c(Cl)c2)C3)cn1 [Compound C615] | > 50 | 0.13 | – | – | –
25 | CNC(=O)c1ccc(-n2c(N[C@@H](c3ccc(OC)cc3)C(C)C)nc3c(c2=O)C[C@@H](C)N(C(=O)c2ccc(Cl)c(Cl)c2)C3)cc1 (single isomer, unassigned) [Compound C422a] | 10.5 | 7.77 | – | – | –
26 | CC[C@H]1Cc2c(nc(NC(C)C)n(-c3ccc(S(C)(=O)=O)cc3)c2=O)CN1C(=O)c1ccc(Cl)c(Cl)c1 (single isomer, unassigned) [Compound C158B, (6*S)-7-(3,4-dichlorobenzoyl)-6-ethyl-3-[4-(methanesulfonyl)phenyl]-2-[(propan-2-yl)amino]-5,6,7,8-tetrahydropyrido[3,4-d]pyrimidin-4(3H)-one] | – | – | 35.7 | 2.13 | –
27 | CNC(=O)c1cc(-n2c(NC(C)C)nc3c(c2=O)C[C@@H](C)N(C(=O)c2ccc(Cl)c(Cl)c2)C3)[nH]n1 [Compound C355, 5-[(6R)-7-(3,4-dichlorobenzoyl)-6-methyl-4-oxo-2-[(propan-2-yl)amino]-5,6,7,8-tetrahydropyrido[3,4-d]pyrimidin-3(4H)-yl]-N-methyl-1H-pyrazole-3-carboxamide] | – | – | 34.2 | 0.09 | –
28 | COc1ccc(CNc2nc3c(c(=O)[nH]2)CCN(C(=O)c2ccc(Cl)c(Cl)c2)C3)cc1 [Compound C34, 7-(3,4-dichlorobenzoyl)-2-{[(4-methoxyphenyl)methyl]amino}-5,6,7,8-tetrahydropyrido[3,4-d]pyrimidin-4(3H)-one] | – | – | 26.6 | 4.03 | –
29 | CC(C)Nc1nc2c(c(=O)n1-c1ccc(-c3nccn3C)cc1Cl)C[C@@H](C)N(C(=O)c1ccc(Cl)c(Cl)c1)C2 [Compound C313, (6R)-3-[2-chloro-4-(1-methyl-1H-imidazol-2-yl)phenyl]-7-(3,4-dichlorobenzoyl)-6-methyl-2-[(propan-2-yl)amino]-5,6,7,8-tetrahydropyrido[3,4-d]pyrimidin-4(3H)-one] | – | – | 24.4 | 0.12 | –
30 | COc1ccccc1-n1c(N)nc2c(c1=O)CCN(C(=O)c1ccc(Cl)c(Cl)c1)C2 [Compound C57, 2-amino-7-(3,4-dichlorobenzoyl)-3-(2-methoxyphenyl)-5,6,7,8-tetrahydropyrido[3,4-d]pyrimidin-4(3H)-one] | – | – | > 50 | 0.91 | –
31 | CNC(=O)c1ccc(-n2c(NC3CCOC3)nc3c(c2=O)C[C@@H](C)N(C(=O)c2ccc(Cl)c(Cl)c2)C3)cc1 (stereo partly drawn) [Compound C559] | > 50 | 0.6 | – | – | –
32 | COc1ccc(CNc2nc3c(c(=O)n2-c2ccccc2OC)C[C@H](C)N(C(=O)c2ccc(Cl)c(Cl)c2)C3)cc1 (single isomer, unassigned) [Compound C36Ab] | – | – | > 50 | – | EC50 [1, 6]: 2.12 µM
33 | CCN(Cc1ccc2c(c1)OCO2)c1nc2c(c(=O)n1-c1ccc(C(=O)NC)cc1)C[C@@H](C)N(C(=O)c1ccc(Cl)c(Cl)c1)C2 [Compound C605] | > 50 | 0.15 | – | – | –
